According to US5006560A, “Use of GABA-B selective agonists as anti-tussive agents” (Schering Corporation, priority 1989, dated 1991):

Columns and labels:
[1] = tested on: citric acid-induced cough; experiment: Citric acid-induced cough in guinea pigs; assay type: in vivo, guinea pig; details: for ED50: Cavia porcellus, sc, citric acid (0.55M) aerosol, guinea pigs, subcutaneous, read-out: ED50, reduction of cough frequency
Experimental: (§1) Unanesthetized male Dunkin Hartley guinea pigs (250-600 g) are placed into transparent plexiglas chambers and exposed to aerosols of capsaicin (300 μM), citric acid (0.55M), or their vehicles at an airflow of 4 L/min. Citric acid is dissolved in 0.9% saline vehicle and capsaicin is dissolved in 10% ethanol, 90% saline vehicle. The volume of solution aerosolized every minute is approximately 0.4 ml. The animals are first exposed to a vehicle aerosol for 4 minutes and then are exposed to citric acid or capsaicin aerosol for an additional 4 minutes. Coughing is detected by a microphone that is placed in the chamber and connected to an audio monitor and chart recorder. Coughs produced deflections on the chart paper which are later counted to determine a cough frequency. Test compounds are administered subcutaneously prior to exposure to citric acid or capsaicin. […] All statistics are expressed relative to control values (unpaired t-test). The results are shown in FIGS. 1A, 1B, 1C and 1D and are discussed below.
(§2) In FIGS. 1C and 1D, 3-APPA or vehicle was administered 45 minutes prior to data collection.
(§3) Guinea pigs were exposed to citric acid at a concentration of 0.55M. This dose of citric acid produced cough frequencies of 10-13 per exposure. The dose of capsaicin used was 0.3 mM and this dose produced cough frequencies of 7-9 per exposure. These doses produced consistent responses and were well tolerated by the animals. Larger doses (up to 2M for citric acid and 3 mM for capsaicin) produced distress to the animals. Lower doses (to 0.2M for citric acid and 0.03 mM for capsaicin) produced inconsistent cough responses.

[2] = tested on: capsaicin-induced cough; experiment: Capsaicin-induced cough in guinea pigs; assay type: in vivo, guinea pig; details: for ED50: Cavia porcellus, sc, capsaicin (0.3 mM) aerosol, guinea pigs, subcutaneous, read-out: ED50, reduction of cough frequency
Experimental: as §1, §2, §3

[3] = tested on: mechanically-induced cough; experiment: Mechanically-induced cough in cats (probing intrathoracic trachea); assay type: in vivo, cat; details: mechanical stimulus
Experimental: (§4) Cats (2.2-3.5 kg) are anesthetized with sodium pentobarbital (35 mg/kg, i.p.). Supplemental anesthetic (5 mg/kg, i.v.) is administered as required. Cannulas are placed in a femoral vein and artery for administering drugs and measuring arterial blood pressure, respectively. A tracheostomy is performed.
(§5) Electromyograms (EMGs) of respiratory muscle activity are recorded via bipolar silver wire electrodes placed in the diaphragm and rectus abdominus muscles by the technique of Basmajian and Stecko (1962). The EMGs are amplified (1000-2000×), filtered (500 Hz-10 KHz), monitored on an oscilloscope, and integrated with a "Leaky" RC circuit (100 ms time constant).
(§6) These stimuli only elicit coughs, apneas, apneusis, or augmented breaths (sighs).
(§7) Coughing is produced by coordinated bursts of activity in inspiratory and expiratory muscles. We define a cough as a burst of activity at least 50% greater than control levels in the diaphragm (inspiratory muscle) immediately followed by or coincident with a burst of activity in the rectus abdominus muscle (expiratory muscle). These criteria eliminate apneas or apneusis (no inspiratory or expiratory bursts) and augmented breaths (no expiratory muscle activity). Test compounds are administered intravenously to determine their effects on mechanically (probe) and electrically (SLN) induced cough. […]

[4] = tested on: electrically-induced cough; experiment: Electrically-induced cough in cats (superior laryngeal nerve stimulation); assay type: in vivo, cat; details: electrical stimulus
Experimental: as §4, §5, §6, §7

[5] = 3-APPA 3 mg/kg i.v., baclofen 0.7 mg/kg i.v.

SMILES | ED50 [1] | ED50 [2] | reduction in cough frequency ([1]; citric acid model, FIG. 1A, 1 hour after s.c. treatment) | reduction in cough frequency ([2]; capsaicin model, FIG. 1B, 1 hour after s.c. treatment) | inhibitory effect on coughing ([3]; cumulative i.v. doses, 5 minutes after injection, FIG. 3A) | inhibitory effect on coughing ([4]; cumulative i.v. doses, 5 minutes after injection, FIG. 3B) | effect of prior treatment with 3-APPA on antitussive effect of baclofen ([1]; citric acid model, 3-APPA 10 mg/kg s.c. before baclofen 1.0 mg/kg s.c., FIG. 1C) | effect of prior treatment with 3-APPA on antitussive effect of baclofen ([2]; capsaicin model, 3-APPA 10 mg/kg s.c. before baclofen 1.0 mg/kg s.c., FIG. 1D) | effect of 3-APPA on antitussive response to baclofen [3, 5] | effect of 3-APPA on antitussive response to baclofen [4, 5]
COc1ccc2c3c1O[C@H]1[C@@H](O)C=C[C@H]4[C@@H](C2)N(C)CC[C@@]341 [Codeine] | 30 mg/kg | 10 mg/kg | – | – | – | – | – | – | – | –
NCC(CC(=O)O)c1ccc(Cl)cc1 (racemic) [baclofen] | ~0.7 mg/kg | ~0.7 mg/kg | dose-dependent reduction in cough frequency | dose-dependent reduction in cough frequency | dose-dependent | dose-dependent | – | – | – | –
NCCCP(=O)(O)O [3-APPA, 3-aminopropylphosphonic acid] | – | – | – | – | – | – | attenuated | attenuated | attenuated these responses | attenuated these responses
